# In patent US7105536B2, “Compounds” (SmithKline Beecham plc, priority 1999, dated 2006):
# System: male rats (Sprague Dawley)
# Test: Maximal electroshock seizure (MEST) threshold test, rat model
# Type: in vivo
# Conditions: 2 mg/kg p.o. at 2 h, suspended in 1% methyl cellulose
# Description: The maximal electroshock seizure (MEST) threshold test in rodents is particularly sensitive for detecting potential anticonvulsant properties^1. In this model, anticonvulsant agents elevate the threshold to electrically-induced seizures whilst proconvulsants lower the seizure threshold.
# The threshold for maximal (tonic hindlimb extension) electroshock seizures in male rats (Sprague Dawley, 80–150 g, 6 weeks old) was determined by a Hugo Sachs Electronik stimulator which delivered a constant current (0.3 sec duration; from 1–300 mA in steps of 5–20 mA). The procedure is similar to that outlined above for mouse and full details are as published by Upton et al,.^4
# The percentage increase or decrease in CC50 for each group compared to the control is calculated. Drugs are suspended in 1% methyl cellulose.
row,SMILES,percentage increase in CC50 compared to the control
1,"CCOc1ccc(C(=O)Nc2cc(Cl)c3c(c2)CNCC3)cc1Cl [Example 2, N-(5-Chloro-1,2,3,4-tetrahydroisoquinolin-7-yl)-3-chloro-4-ethoxy benzamide]",390%
2,"CC(C)c1ccc(C(=O)Nc2cc(Cl)c3c(c2)CNCC3)cc1C#N [Example 3, N-(5-Chloro-1,2,3,4-tetrahydroisoquinolin-7-yl)-3-cyano-4-iso-propyl benzamide]",140%
3,"COc1ccc(C(=O)Nc2cc(Cl)c3c(c2)CNCC3)cc1C#N [Example 5, N-(5-Chloro-1,2,3,4-tetrahydroisoquinolin-7-yl)-3-cyano-4-methoxybenzamide]",210%
4,"CCOc1ccc(C(=O)Nc2cc(Cl)c3c(c2)CNCC3)cc1Br [Example 7, N-(5-Chloro-1,2,3,4-tetrahydroisoquinolin-7-yl)-3-bromo-4-ethoxybenzamide]",410%
5,"CC(=O)c1cc(C(=O)Nc2cc(Cl)c3c(c2)CNCC3)ccc1OC(C)C [Example 8, N-(5-Chloro-1,2,3,4-tetrahydroisoquinolin-7-yl)-3-acetyl-4-iso-propoxybenzamide]",114%
